The target in this assay is α7 nAChR subtype (Rattus norvegicus, UniProt Q05941). It is filed as binding.
Chain of α7 nAChR subtype (Q05941 23-502 limits assumed): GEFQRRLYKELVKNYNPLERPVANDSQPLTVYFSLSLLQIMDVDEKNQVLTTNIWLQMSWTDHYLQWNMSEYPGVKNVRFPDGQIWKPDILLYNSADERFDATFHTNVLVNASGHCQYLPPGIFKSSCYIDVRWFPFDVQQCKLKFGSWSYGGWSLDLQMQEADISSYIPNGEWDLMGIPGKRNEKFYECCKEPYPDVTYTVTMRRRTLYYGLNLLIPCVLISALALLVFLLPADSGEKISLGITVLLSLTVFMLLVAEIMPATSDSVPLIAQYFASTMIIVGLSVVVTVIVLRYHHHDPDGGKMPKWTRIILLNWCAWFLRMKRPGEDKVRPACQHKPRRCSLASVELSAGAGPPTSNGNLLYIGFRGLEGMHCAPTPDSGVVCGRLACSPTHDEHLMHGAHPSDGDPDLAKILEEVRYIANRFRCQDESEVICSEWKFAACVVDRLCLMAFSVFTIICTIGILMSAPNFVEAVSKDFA

A word on the Kd: it is the concentration at which binding is half-saturated. High values mean lower affinity, low ones higher affinity. In turn, ^125I-α—Bungarotoxin [^125I-α-BTX] yielded a Kd of 1.67 nM.

Values taken from patent US20070270458A1 (priority 2003, published 2007).
